Consider seven molecules from patent publication US7312219B2, “Heteroaromatic inhibitors of fructose 1,6-bisphosphatase” (Metabasis Therapeutics, Inc., priority 1998, dated 2007).

For one series, the target named is T1, human liver FBPase (Homo sapiens, UniProt P09467).
T1 construct: made in house; host or cells: E. coli BL21
T1 sequence (P09467 2-338 limits assumed): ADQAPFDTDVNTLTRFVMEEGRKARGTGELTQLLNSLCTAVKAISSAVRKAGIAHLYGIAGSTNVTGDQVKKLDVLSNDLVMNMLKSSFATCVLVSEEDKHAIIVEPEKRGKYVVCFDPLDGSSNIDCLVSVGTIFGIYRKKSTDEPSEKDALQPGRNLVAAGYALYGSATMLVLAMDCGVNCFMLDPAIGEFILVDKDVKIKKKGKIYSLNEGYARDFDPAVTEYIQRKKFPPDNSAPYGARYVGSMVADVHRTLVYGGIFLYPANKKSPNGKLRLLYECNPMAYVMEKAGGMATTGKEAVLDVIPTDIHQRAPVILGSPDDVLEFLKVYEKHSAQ
In words: Inhibition of Human Liver FBPase. The series is classed as biochemical. Particulars: read-out: IC50 (hlFBPase).

Another series addresses T2, rat liver FBPase (Rattus norvegicus, UniProt P19112).
T2 sequence (P19112 2-363 limits assumed): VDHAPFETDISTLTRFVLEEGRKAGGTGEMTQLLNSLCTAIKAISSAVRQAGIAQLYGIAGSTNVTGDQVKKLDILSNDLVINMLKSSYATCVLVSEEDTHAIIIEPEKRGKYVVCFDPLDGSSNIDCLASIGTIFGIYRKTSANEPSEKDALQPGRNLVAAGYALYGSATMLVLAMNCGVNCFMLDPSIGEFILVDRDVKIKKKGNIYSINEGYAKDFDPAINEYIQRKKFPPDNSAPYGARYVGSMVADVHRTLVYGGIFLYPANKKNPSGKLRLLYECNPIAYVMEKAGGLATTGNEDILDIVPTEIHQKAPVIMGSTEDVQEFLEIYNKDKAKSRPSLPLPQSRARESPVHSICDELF
In words: Inhibition of Rat Liver FBPase.

Another series concerns the target T3, Human adenosine kinase (Homo sapiens, UniProt P55263).
T3 construct: made in house; host or cells: E. coli
As to the kind of experiment: AMP Site/Enzyme Selectivity: Adenosine Kinase. Type of series: biochemical. Particulars: read-out: Adenosine Kinase (inh.).

The target in another series is Porcine heart AMPDA. As to the kind of experiment: AMP Site/Enzyme Selectivity: Adenosine Monophosphate Deaminase. Type of series: biochemical. As to conditions: read-out: AMP Deaminase (inh.).
The target in series [1] is T4, Glycogen Phosphorylase (rabbit muscle) (Oryctolagus cuniculus, UniProt P00489).
T4 construct: Enzyme (rabbit muscle) was purchased from Sigma; purchased Sigma; host or cells: rabbit muscle
T4 sequence (P00489 2-843 limits assumed): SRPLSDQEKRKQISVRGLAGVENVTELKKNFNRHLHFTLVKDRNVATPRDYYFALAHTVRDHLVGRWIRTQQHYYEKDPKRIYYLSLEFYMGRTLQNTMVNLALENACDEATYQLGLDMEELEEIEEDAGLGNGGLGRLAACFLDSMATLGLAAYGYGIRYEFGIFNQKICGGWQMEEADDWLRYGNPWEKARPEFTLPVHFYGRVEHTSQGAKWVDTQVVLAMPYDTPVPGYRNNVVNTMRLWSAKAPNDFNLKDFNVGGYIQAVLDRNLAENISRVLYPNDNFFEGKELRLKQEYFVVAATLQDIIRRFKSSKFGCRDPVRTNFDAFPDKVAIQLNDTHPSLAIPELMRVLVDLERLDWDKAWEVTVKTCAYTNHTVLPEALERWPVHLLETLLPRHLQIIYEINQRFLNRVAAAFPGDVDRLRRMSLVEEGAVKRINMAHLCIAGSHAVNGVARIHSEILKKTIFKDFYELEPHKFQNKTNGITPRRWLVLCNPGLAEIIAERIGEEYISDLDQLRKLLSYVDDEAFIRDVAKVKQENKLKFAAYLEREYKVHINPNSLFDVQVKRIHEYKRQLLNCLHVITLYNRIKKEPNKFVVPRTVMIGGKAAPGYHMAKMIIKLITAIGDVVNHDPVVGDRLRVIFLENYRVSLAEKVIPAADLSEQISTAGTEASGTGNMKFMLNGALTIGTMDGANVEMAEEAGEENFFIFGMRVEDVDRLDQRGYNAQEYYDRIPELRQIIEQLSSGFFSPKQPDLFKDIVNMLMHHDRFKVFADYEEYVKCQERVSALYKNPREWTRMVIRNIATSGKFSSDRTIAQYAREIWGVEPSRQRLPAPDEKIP
In words: AMP Site/Enzyme Selectivity: Glycogen Phosphorylase. Type of series: biochemical. Particulars: activation; read-out: Glycogen Phosphorylase (act.).

The target of series [2] is T5, Adenylate Kinase (rabbit muscle) (Oryctolagus cuniculus, UniProt P00569).
T5 construct: Enzyme (rabbit muscle) was purchase from Sigma; purchased Sigma; host or cells: rabbit muscle
T5 sequence (P00569 1-194): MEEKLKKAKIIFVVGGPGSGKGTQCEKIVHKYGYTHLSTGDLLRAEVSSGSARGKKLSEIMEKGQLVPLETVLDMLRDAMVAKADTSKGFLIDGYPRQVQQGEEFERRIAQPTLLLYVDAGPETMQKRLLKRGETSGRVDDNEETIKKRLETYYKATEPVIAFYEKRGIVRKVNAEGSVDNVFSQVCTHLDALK
As to the kind of experiment: AMP Site/Enzyme Selectivity: Adenylate Kinase. The series is classed as biochemical. Particulars: read-out: Adenylate Kinase (inh.).

Series [3] has as its system Gluconeogenesis in Rat Hepatocytes. As to the kind of experiment: Inhibition of Gluconeogenesis in Rat Hepatocytes. The series is classed as cell-based. As to conditions: 10 mM lactate, 1 mM pyruvate, 1 hour incubation, read-out: IC50 Glucose Production. On the procedure: Hepatocytes were prepared from overnight fasted Sprague-Dawley rats (250–300 g) according to the procedure of Berry and Friend (Berry, M. N., Friend, D. S., 1969, J. Cell. Biol. 43, 506–520) as modified by Groen (Groen, A. K., Sips, H. J., Vervoorn, R. C., Tager, J. M. , 1982, Eur. J. Biochem. 122, 87–93). Hepatocytes (75 mg wet weight/ml) were incubated in 1 ml Krebs-bicarbonate buffer containing 10 mM Lactate, 1 mM pyruvate, 1 mg/ml BSA, and test compound concentrations from 1 to 500 μM. Incubations were carried out in a 95% oxygen, 5% carbon dioxide atmosphere in closed, 50-ml Falcon tubes submerged in a rapidly shaking water bath (37° C.). After 1 hour, an aliquot (0.25 ml) was removed, transferred to an Eppendorf tube and centrifuged. 50 μl of supernatant was then assayed for glucose content using a Sigma Glucose Oxidase kit as per the manufacturer's instructions.

For a further series, the system named is Fasted Rats. In words: Blood Glucose Lowering Following Intravenous Administration to Fasted Rats. Type of series: in vivo, rat. Particulars: Rattus norvegicus, iv; 18 h fasted Sprague Dawley rats, 10 mg/kg i.v., 1 hour, relative to saline-treated controls. On the procedure:
Inhibitors were disolved in water and the solution adjusted to neutrality with NaOH. Blood samples were obtained from the tail vein of conscious animals just prior to injection and after 1 hour. Blood glucose was measured using a HemoCue Inc. glucose analyzer according to the instructions of the manufacturer.

Series [4] is described as follows: Estimation of the Oral Bioavailability of Phosphonic Acids and their Prodrugs. The series is classed as in vivo, rat. As to conditions: fasted rats, oral 10–50 mg/kg, 24 h urinary recovery of phosphonic acid, oral vs intravenous; for bioavailability: Sprague-Dawley, rat, urine. On the procedure: Phosphonic acids were dissolved in water, and the solution adjusted to neutrality with sodium hydroxide. Prodrugs were dissolved in 10% ethanol/90% polyethlene glycol (mw 400). Compound was administered by oral gavage to 18-hour fasted Sprague-Dawley rats (220–250 g) at doses ranging from 10–50 mg/kg. The rats were subsequently placed in metabolic cages and urine was collected for 24 hours. The quantity of phosphonic acid excreted into urine was determined by HPLC analysis as described in Example G. In a separate study, urinary recovery was determined following intravenous (tail vein) administration of compound (in the case of the prodrugs, the appropriate parent phosphonic acid was administered i.v.).

Series [5] in a line: Analysis of Drug Levels and Liver Accumulation in Rats. Type of series: in vivo, rat. Particulars: fasted rats, 10 mgs/kg i.v., one hour post injection, liver. On the procedure: The compound was dissolved in water and the solution adjusted to neutrality with NaOH. One hour post injection rats were anesthetized with halothane and a liver biopsy (approx. 1 g) was taken as well as a blood sample (2 ml) from the posterior vena cava. A heparin flushed syringe and needle were used for blood collection. The liver sample was immediately homogenized in ice-cold 10% perchloric acid (3 ml), centrifuged, and the supernatant neutralized with ⅓rd volume of 3 M KOH/3 M KHCO3. […] Plasma was prepared from the blood sample by centrifugation and extracted by addition of methanol to 60% (v/v). The methanolic extract was clarified by centrifugation and filtration and then analyzed by HPLC as described above.

Another series relates to Fasted Rat. As to the kind of experiment: Glucose Lowering Following Oral Administration to the Fasted Rat. The series is classed as in vivo. Particulars: oral gavage, 18-hour fasted rats, relative to saline controls. On the procedure: Compounds were administered by oral gavage to 18-hour fasted, Sprague Dawley rats (250–300 g, n =3/4/group). Phosphonic acids were prepared in deionized water, and the solution adjusted to neutrality with solidum hydroxide. Prodrugs were dissolved in polyethylene glycol (mw 400). […] The table below indicates the maximum glucose lowering achieved relative to control animals dosed with saline.

Series [6] in a line: Oral Absorption Determinations of Prodrugs in the Rat. Particulars: normal fed rats.

Read-outs that look alike come from different tables or passages of the source.

T3 sequence (P55263 1-345 isoform P55263-2): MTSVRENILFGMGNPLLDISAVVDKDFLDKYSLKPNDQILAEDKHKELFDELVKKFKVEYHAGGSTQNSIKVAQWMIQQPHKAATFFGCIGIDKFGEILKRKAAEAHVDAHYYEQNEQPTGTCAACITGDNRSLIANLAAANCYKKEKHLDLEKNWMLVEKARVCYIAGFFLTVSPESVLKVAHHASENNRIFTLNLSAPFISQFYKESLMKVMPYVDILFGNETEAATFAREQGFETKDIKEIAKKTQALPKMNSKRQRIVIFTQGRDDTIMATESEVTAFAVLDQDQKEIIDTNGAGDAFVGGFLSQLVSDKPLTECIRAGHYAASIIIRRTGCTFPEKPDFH
Protocol for rat liver FBPase: Enzymatic activity was measured spectrophotometrically in reactions that coupled the formation of product (fructose 6-phosphate) to the reduction of dimethylthiazoldiphenyltetrazolium bromide (MTT) via NADP^+ and phenazine methosulfate (PMS), using phosphoglucose isomerase and glucose 6-phosphate dehydrogenase as the coupling enzymes.
E. coli strain BL21 transformed with a rat liver FBPase-encoding plasmid was obtained from Dr. M. R. El-Maghrabi at the State University of New York at Stony Brook.

As to `Nc1ncnc2c1ncn2[C@@H]1O[C@H](COP(=O)(O)O)[C@@H](O)[C@H]1O` [AMP, reference compound], the results for the IC50 on human liver FBPase and on rat liver FBPase (read-out: IC50 (rlFBPase)) were 1 µM and 20 µM, respectively.
As usually defined, the inhibition in vivo is the drop in the measured response relative to a control, in per cent. Broadly, the bioavailability is dose-corrected exposure relative to a reference, in per cent. With `CC(C)Cc1sc(N)nc1-c1ccc(P(=O)(O)O)o1` [Compound 3.1, 2-amino-5-isobutyl-4-[2-(5-phosphono)furanyl]thiazole], the IC50 at Human adenosine kinase is greater than 10 µM; at Porcine heart AMPDA, greater than 10 µM; in series [2], greater than 500 µM; in series [3] (Hepatocyte) it was 2.5 µM. Further, the EC50 in [1] was greater than 100 µM. Besides, the inhibition in vivo at 10 mg/kg with Fasted Rats was found to be 65%. Further, in series [4], the bioavailability is 4%.
In the case of `CC(C)Cc1[se]c(N)nc1-c1ccc(P(=O)(O)O)o1` [Compound 3.70, 2-Amino-5-isobutyl-4-[2-(5-phosphono)furanyl]selenazole], the IC50 on human liver FBPase is 0.04 µM; on rat liver FBPase, 0.15 µM.
With `CC(C)Cc1oc(N)nc1-c1ccc(P(=O)(O)O)o1` [Compound 10.1, 2-amino-5-isobutyl-4-[2-(5-phosphono)furanyl]oxazole], the IC50 is greater than 10 µM on Human adenosine kinase, greater than 10 µM on Porcine heart AMPDA and greater than 500 µM in [2]. In addition, the EC50 in series [1] is greater than 100 µM. This molecule gave an inhibition in vivo at 10 mg/kg in the series with Fasted Rats of 51%. Also, in [5], the “Liver Conc.” value is 35.6 ± 4.2 nmol/g. Besides, in the series with Fasted Rat (dose 90 mg/kg, time point 3 h), the “% Glucose Lowering (maximum)” value worked out at 55%. Moreover, the bioavailability in series [4] is 21%.
As usually defined, the melting point is the temperature of the solid-liquid transition. On to `CCc1cc(CC)c(-c2ccc(P(=O)(O)O)o2)nc1N` [Compound 15.4, 2-amino-3,5-diethyl-6-[2-(5-phosphono)furanyl]pyridine], for which the melting point was in the range of 217 to 218 °C.
Same read-out and setting: next, `CCCc1cnc(N)nc1-c1ccc(P(=O)(O)O)o1` [Compound 16.1, 2-amino-5-propyl-4-[2-(5-phosphono)furanyl]pyrimidine]: 258 to 259 °C.
`CC(C)Cc1sc(N)nc1-c1ccc(P2(=O)OCCC(c3cc(Cl)cc(Cl)c3)O2)o1` (stereo not drawn) [Compound 19.48, 2-Amino-5-isobutyl-4-{2-[5-(1-(3,5-dichlorophenyl)-1,3-propyl)phosphono]furanyl}thiazole]: in series [3], the IC50 amounted to 6.5 µM. Further, the “% Glucose Lowering (maximum)” value in the series with Fasted Rat (dose 30 mg/kg, time point 2 h) stood at 63%. The “% Oral bioavailability” value in series [4] was 12%. Further, the “% excreted i.p.” value in series [6] (30 mg/kg intraperitoneal, parent compound 3.1 in 24 h urine) stood at 11.3%. In addition, in series [6] (30 mg/kg oral gavage, parent compound 3.1 in 24 h urine), the “% excreted p.o.” value is listed as 11.6%. The “% absorption” value in [6] (30 mg/kg, urinary excretion oral vs intraperitoneal) came out at 100%.
